The values below come from ChEMBL document CHEMBL1955733, “Optimization of 5-pyridazin-3-one phenoxypropylamines as potent, selective histamine H₃ receptor antagonists with potent cognition enhancing activity” (J Med Chem, 2012).

Data set [1] can be described thus: Clearance in Sprague-Dawley rat at 1 mg/kg, iv and 5 mg/kg, po. Type of data set: ADME, organism-based. The following applies: in vivo.
Data set [2] deals with Histamine H3 receptor (Rattus norvegicus, UniProt Q9QYN8). Nature of the data set: Displacement of [3H]NAMH from rat cloned […] expressed in CHO cells. Type of data set: cell-based. (In general: In a radioligand displacement assay an active substance lowers the binding of a labelled ligand.)
A short description of data set [3]: Oral bioavailability in Sprague-Dawley rat at 5 mg/kg. Type of data set: ADME, organism-based. The following applies: in vivo.
For data set [4], the target named is Histamine H3 receptor (Homo sapiens, UniProt Q9Y5N1). Nature of the data set: Displacement of [3H]NAMH from human cloned […] expressed in CHO cells. Type of data set: cell-based.
Data set [5] is described as follows: Half life in Sprague-Dawley rat at 1 mg/kg, iv and 5 mg/kg, po. Type of data set: ADME, organism-based. The following applies: in vivo.
Data set [6] can be described thus: Ratio of drug level in brain to plasma in Sprague-Dawley rat at 10 mg/kg, ip after 1 hr. Type of data set: ADME, organism-based. The following applies: brain and plasma, read-out: BPR. Details: dose 10 mg/kg, route intraperitoneal.

Chain of Histamine H3 receptor (Homo sapiens, UniProt Q9Y5N1) (Q9Y5N1 whole entry): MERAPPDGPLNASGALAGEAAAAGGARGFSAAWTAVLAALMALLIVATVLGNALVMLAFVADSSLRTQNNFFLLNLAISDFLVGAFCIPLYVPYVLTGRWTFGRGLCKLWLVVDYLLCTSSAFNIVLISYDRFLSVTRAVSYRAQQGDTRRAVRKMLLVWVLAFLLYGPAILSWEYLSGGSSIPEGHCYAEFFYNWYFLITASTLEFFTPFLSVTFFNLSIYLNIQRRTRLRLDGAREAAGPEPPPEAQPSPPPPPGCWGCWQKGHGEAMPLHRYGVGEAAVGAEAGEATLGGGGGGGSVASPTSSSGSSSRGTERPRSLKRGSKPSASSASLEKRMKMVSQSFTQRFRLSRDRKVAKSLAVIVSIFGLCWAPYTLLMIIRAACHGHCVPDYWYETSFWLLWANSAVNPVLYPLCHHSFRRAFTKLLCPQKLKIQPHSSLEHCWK
Chain of Histamine H3 receptor (Rattus norvegicus, UniProt Q9QYN8) (Q9QYN8 whole entry): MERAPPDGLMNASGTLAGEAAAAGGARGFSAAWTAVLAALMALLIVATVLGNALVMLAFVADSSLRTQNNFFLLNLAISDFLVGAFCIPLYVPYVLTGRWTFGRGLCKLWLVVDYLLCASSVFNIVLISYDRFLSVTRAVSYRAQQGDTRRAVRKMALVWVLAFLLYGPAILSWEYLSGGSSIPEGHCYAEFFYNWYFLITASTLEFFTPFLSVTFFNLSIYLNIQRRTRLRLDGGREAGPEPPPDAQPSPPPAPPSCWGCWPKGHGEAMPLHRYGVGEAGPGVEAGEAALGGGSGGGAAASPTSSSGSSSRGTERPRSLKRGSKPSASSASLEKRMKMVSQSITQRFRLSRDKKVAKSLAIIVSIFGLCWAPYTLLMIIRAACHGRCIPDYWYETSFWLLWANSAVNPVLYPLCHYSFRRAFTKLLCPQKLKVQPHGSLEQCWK

As usually defined, the Ki is the dissociation constant of the complex between target and ligand, obtained from inhibition or displacement. A high value points to weaker binding. For orientation: bioavailability means dose-corrected exposure relative to a reference, in per cent. A high value points to good availability. A word on the half-life: it is the time needed for the level to fall by half in the phase considered. Read a high half-life as slow decline. Take `Cc1n[nH]c(=O)cc1-c1ccc(OCCCN2CCC[C@H]2C)cc1`: in data set [1], the clearance is 25 mL/min/kg. In addition, the results for the Ki at Histamine H3 receptor [2] and on Histamine H3 receptor [4] were 5.1 nM and 1.6 nM, respectively. Also, the bioavailability in data set [3] worked out at 20%. The half-life in data set [5] is 1.4 h. The Kp at 1 h in data set [6] came to 1.6.
In data set [1], `Cc1cccnc1-n1ncc(-c2ccc(OCCCN3CCC[C@H]3C)cc2)cc1=O` yielded a clearance of 34 mL/min/kg. The values for the Ki at Histamine H3 receptor [2] and on Histamine H3 receptor [4] were 8.6 nM and 2.5 nM, respectively. The same compound registered a bioavailability in data set [3] of 30%. This compound showed a half-life in data set [5] of 1.8 h. For the same compound, the Kp at 1 h in data set [6] was found to be 0.2.
In the case of `Cc1cccnc1-n1nc(C)c(-c2ccc(OCCCN3CCC[C@H]3C)cc2)cc1=O`, the clearance in data set [1] is 7 mL/min/kg. In addition, the Ki at Histamine H3 receptor [2] was 17 nM; on Histamine H3 receptor [4], 3 nM. Moreover, the bioavailability in data set [3] stood at 20%. In addition, the half-life in data set [5] is 1.4 h. The Kp at 1 h in data set [6] is 0.5.
The compound `Cc1n[nH]c(=O)cc1-c1ccc(OCCCN2CCCCCC2)cc1` had a clearance in data set [1] of 54 mL/min/kg. Further, the Ki came out at 7.5 nM on Histamine H3 receptor [2] and 4.8 nM at Histamine H3 receptor [4]. Further, the bioavailability in data set [3] is 25%. This compound had a half-life in data set [5] of 1 h. In data set [6], the Kp at 1 h turned out to be 1.2.
With `O=c1cc(-c2ccc(OCCCN3CCCCC3)cc2)cn[nH]1`, in data set [1], the clearance is 24 mL/min/kg. Besides, the Ki at Histamine H3 receptor [2] was determined as 28 nM; at Histamine H3 receptor [4], 19 nM. In addition, the bioavailability in data set [3] amounted to 42%. In addition, the half-life in data set [5] is 1.6 h. Also, the Kp at 1 h in data set [6] came to 3.
In data set [1], `Cc1cccc(-n2ncc(-c3ccc(OCCCN4CCC[C@H]4C)cc3)cc2=O)n1` gave a clearance of 23 mL/min/kg. Besides, the figures for the Ki at Histamine H3 receptor [2] and on Histamine H3 receptor [4] were 4.4 nM and 1.8 nM, respectively. Moreover, the bioavailability in data set [3] stood at 12%. For the same compound, in data set [5], the half-life was 2.2 h. In addition, the Kp at 1 h in data set [6] came out at 1.
`Cc1nn(-c2ccccn2)c(=O)cc1-c1ccc(OCCCN2CCC[C@H]2C)cc1` registered a clearance in data set [1] of 13 mL/min/kg. For the same compound, the Ki worked out at 5 nM at Histamine H3 receptor [2] and 1.7 nM at Histamine H3 receptor [4]. For the same compound, the bioavailability in data set [3] was determined as 15%. The half-life in data set [5] is 1.3 h. For the same compound, the Kp at 1 h in data set [6] was 0.7.
Turning to `Cn1ncc(-c2ccc(OCCCN3CCCCCC3)cc2)cc1=O`, the Ki turned out to be 22 nM at Histamine H3 receptor [2] and 8.1 nM on Histamine H3 receptor [4].
The compound `C[C@H]1CCCN1CCCOc1ccc(-c2cnn(-c3ccccn3)c(=O)c2)cc1` displayed a clearance in data set [1] of 45 mL/min/kg. In data set [3], this compound yielded a bioavailability of 52%. Further, in data set [5], the half-life was 2.8 h. Also, the Kp at 1 h in data set [6] came out at 1.7.
For the compound `Cc1n[nH]c(=O)cc1-c1ccc(OCCCN2CCCCC2)cc1`, in data set [1], the clearance came out at 30 mL/min/kg. For the same compound, the Ki on Histamine H3 receptor [2] turned out to be 23 nM; on Histamine H3 receptor [4], 7.9 nM. The bioavailability in data set [3] was determined as 28%. Moreover, the half-life in data set [5] is 0.8 h. In addition, the Kp at 1 h in data set [6] is 1.3.
